Results reported in US11465987B2, “Compounds for treatment of cancer” (ONCTERNAL THERAPEUTICS, INC., priority 2012, dated 2022).
Like-named read-outs stand apart in the source and are kept apart here. One block for each compound: values may come before it.

Tests used:
[1] = tested on: DU 145 human prostate cancer cell line; assay: Cytotoxicity (SRB) assay, DU 145; format: cell-based
Excerpt: (§1) Cells were stained with SRB solution.

[2] = tested on: LNCaP human prostate cancer cell line; assay: Cytotoxicity (SRB) assay, LNCaP; format: cell-based
Excerpt: as §1

[3] = tested on: PC-3 human prostate cancer cell line; assay: cells; details: Homo sapiens
Excerpt: as §1

[4] = tested on: PPC-1 human prostate cancer cell line; assay: Cytotoxicity (SRB) assay, PPC-1; format: cell-based; details: Homo sapiens
Excerpt: as §1

[5] = tested on: melanoma and prostate cancer cell lines; assay: Antiproliferative activity summarised over the cell line panel (range or average); format: cell-based; details: for antiproliferative activity in words: Tables 1-3
[6] = Homo sapiens, DU-145, Table 6A, read-out: IC50 ± SEM, DU 145
[7] = read-out: IC50 ± SEM, PC-3, Table 6A
[8] = PPC-1, Table 6A, read-out: IC50 ± SEM, PPC-1 (converted)
[9] = read-out: IC50 PC-3, SRB assay, prostate cancer PC-3
[10] = Tables 11-13, read-out: IC50 (average of all seven cell lines)
[11] = read-out: IC50 ± SEM, PC-3, Table 13
[12] = Tables 1-2, read-out: IC50 (range or bound over tested cell lines)
[13] = range over prostate cancer cell lines, read-out: IC50 range against prostate cancer cells
[14] = Homo sapiens, LNCaP, SRB assay, prostate cancer LNCaP, read-out: IC50 LNCaP

IC50 [3, 7]: 1.9 µM
Compound: O=C(c1csc(-c2ccccc2)n1)c1c(F)c(F)c(F)c(F)c1F [compound 17]
IC50 [1, 6]: 2.6 µM
IC50 ([2]; Homo sapiens, LNCaP, Table 6A, read-out: IC50 ± SEM, LNCaP (converted)): 2.1 µM
IC50 [4, 8]: 1.3 µM

IC50 [3, 9]: > 10 µM
Compound: COc1cc(C(O)c2csc(-c3ccccc3)n2)cc(OC)c1OC (stereo not shown) [2b, (2-Phenylthiazol-4-yl)(3,4,5-trimethoxyphenyl)methanol]
antiproliferative activity in words [5]: inactive

IC50 [5, 10]: 1 to 50 µM
IC50 [3, 11]: > 10 µM
Compound: O=C(c1ccc(F)cc1)c1cn(S(=O)(=O)c2ccccc2)c(-c2ccccc2C(F)(F)F)n1 [11ib, (1-(phenylsulfonyl)-2-(2-(trifluoromethyl)phenyl)-1H-imidazol-4-yl)(4-fluorophenyl)methanone]

IC50 [3, 7]: > 10 µM
Compound: Cc1ccc(-c2nc(C(=O)c3ccc(F)cc3)cs2)cc1 [compound 11]
IC50 [1, 6]: > 10 µM
IC50 [4, 8]: > 10 µM

IC50 [5, 12]: > 10 µM
Compound: COc1cc(C(=O)c2cc(-c3ccccc3)on2)cc(OC)c1OC [1i, (5-Phenylisoxazol-3-yl)(3,4,5-trimethoxyphenyl)methanone]

IC50 [3, 7]: > 10 µM
Compound: O=C(c1ccc(F)cc1)c1csc(-c2ccccc2)n1 [compound 12]
IC50 [1, 6]: > 10 µM
IC50 [4, 8]: > 10 µM

IC50 [5, 10]: 1 to 50 µM
IC50 [3, 11]: > 10 µM
Compound: COc1cc(-c2nc(C(=O)c3ccc(F)cc3)cn2S(=O)(=O)c2ccccc2)cc(OC)c1OC [11eb, (4-fluorophenyl)(1-(phenylsulfonyl)-2-(3,4,5-trimethoxyphenyl)-1H-imidazol-4-yl)methanone]

IC50 [5, 10]: 1 to 50 µM
Compound: COc1cc(-c2nc(C(=O)c3ccc(F)cc3)c[nH]2)cc(OC)c1OC [12eb]

IC50 [3, 7]: ~10 µM
Compound: COc1cc(C(=O)c2csc(-c3ccccc3)n2)cc(OC)c1OC(=O)C(F)(F)F [compound 23]
IC50 [1, 6]: ~10 µM
IC50 [4, 8]: ~10 µM

IC50 [5, 10]: 1 to 50 µM
IC50 [3, 11]: > 10 µM
Compound: COc1cc(C(=O)c2cn(S(=O)(=O)c3ccccc3)c(-c3ccccc3C(F)(F)F)n2)cc(OC)c1OC [11ia, (1-(phenylsulfonyl)-2-(2-(trifluoromethyl)phenyl)-1H-imidazol-4-yl)(3,4,5-trimethoxyphenyl)methanone]

IC50 [3, 9]: 3.49 µM
Compound: COc1cc(C(=O)C2N(C)C=C(c3ccccc3)N2C)cc(OC)c1OC (stereo not shown) [compound 105, (1,3-Dimethyl-4-phenyl-2,3-dihydro-1H-imidazol-2-yl)(3,4,5-trimethoxyphenyl)methanone]
IC50 [2, 14]: 4.24 µM
IC50 ([4]; PPC-1, SRB assay, prostate cancer PPC-1, read-out: IC50 PPC-1): 5.29 µM

IC50 [3, 7]: ~10 µM
Compound: COc1cc(C(=O)c2csc(-c3ccccc3)n2)cc(OC)c1OC(=O)CCl [compound 18]
IC50 [1, 6]: ~10 µM
IC50 [4, 8]: ~10 µM

IC50 ([5]; read-out: IC50 (range over tested cell lines)): 0.007 to 0.025 µM
IC50 [3, 9]: 0.007 µM
Compound: COc1cc(C(=O)c2csc(-c3ccc4[nH]ccc4c3)n2)cc(OC)c1OC [66a]

IC50 [3, 7]: > 10 µM
Compound: O=C(c1ccc(F)cc1)c1csc(-c2ccc(F)cc2)n1 [compound 14]
IC50 [1, 6]: > 10 µM
IC50 [4, 8]: > 10 µM

IC50 [5, 13]: 0.012 to 0.035 µM
IC50 [3, 9]: 0.012 µM
Compound: COc1cc(C(=O)c2csc(-c3ccccc3)c2)cc(OC)c1OC [1f, (5-Phenylthiophen-3-yl)(3,4,5-trimethoxyphenyl)methanone]

IC50 [5, 10]: 1 to 50 µM
IC50 [3, 11]: 10 µM
Compound: COc1ccc(-c2nc(C(=O)c3ccc(F)cc3)cn2S(=O)(=O)c2ccccc2)cc1OC [11hb, (2-(3,4-dimethoxyphenyl)-1-(phenylsulfonyl)-1H-imidazol-4-yl)(4-fluorophenyl)methanone]

IC50 [3, 7]: > 2 µM
Compound: O=C(c1cc(O)c(O)c(O)c1)c1csc(-c2ccccc2)n1 [compound 33]
IC50 [1, 6]: > 2 µM
IC50 [4, 8]: > 2 µM

IC50 [5, 12]: > 10 µM
Compound: COc1cc(C(=O)c2cnc(-c3ccccc3)s2)cc(OC)c1OC [1e, (2-Phenylthiazol-5-yl)(3,4,5-trimethoxyphenyl)methanone]

IC50 [3, 7]: > 10 µM
Compound: COc1cc(C(=O)c2csc(-c3ccccc3)n2)cc(OC)c1O [compound 34]
IC50 [1, 6]: > 10 µM
IC50 [4, 8]: > 10 µM

IC50 [5, 10]: 1 to 50 µM
IC50 [3, 11]: > 10 µM
Compound: COc1cc(C(=O)c2cn(S(=O)(=O)c3ccccc3)c(-c3cc(OC)c(OC)c(OC)c3)n2)cc(OC)c1OC [11ea, (1-(phenylsulfonyl)-2-(3,4,5-trimethoxyphenyl)-1H-imidazol-4-yl)(3,4,5-trimethoxyphenyl)methanone]

IC50 [3, 9]: > 10 µM
Compound: COc1cc(NC(=O)c2csc(-c3ccccc3)n2)cc(OC)c1OC [2g, 2-Phenyl-N-(3,4,5-trimethoxyphenyl)thiazole-4-carboxamide]
IC50 [2, 14]: > 10 µM

IC50 [5, 12]: > 10 µM
IC50 [3, 9]: > 10 µM
Compound: COc1cc(/C(=N\O)c2csc(-c3ccccc3)n2)cc(OC)c1OC [2e-trans, (E)-(2-Phenylthiazol-4-yl)(3,4,5-trimethoxyphenyl)methanone oxime]

IC50 [5, 12]: 3.7 to 8.3 µM
IC50 [3, 9]: 8.3 µM
Compound: COc1cc(C(=O)c2cc(-c3ccccc3)ncn2)cc(OC)c1OC [1b, (6-Phenylpyrimidin-4-yl)(3,4,5-trimethoxyphenyl)methanone]

Second part, the compound before the results:

Compound: 4-Methoxyphenyl(4-(3,4,5-trimethoxyphenyl)-1H-imidazol-2-yl)methanone and 4-methoxyphenyl(5-(3,4,5-trimethoxyphenyl)-1H-imidazol-2-yl)methanone [70y]
IC50 ([1]; Table 13B, read-out: inhibitory effects, DU145): > 50 µM

Compound: COc1cc(C(=O)c2cccc(-c3cc(OC)c(OC)c(OC)c3)c2)cc(OC)c1OC [compound 35]
IC50 ([1]; Homo sapiens, DU-145, read-out: IC50 ± SEM, DU 145): 21.9 µM
IC50 ([2]; Homo sapiens, LNCaP, read-out: IC50 ± SEM, LNCaP): 1.5 µM
IC50 ([3]; read-out: IC50 ± SEM, PC-3): 40.1 µM
IC50 ([4]; PPC-1, read-out: IC50 ± SEM, PPC-1): 15 µM

Compound: COc1cc(C(=O)c2nc(-c3ccccc3)cn2-c2ccccn2)cc(OC)c1OC [70ad]
IC50 ([1]; Homo sapiens, DU-145, Table 13A, read-out: inhibitory effects, DU145): 0.0363 µM
IC50 ([2]; Homo sapiens, LNCaP, Table 13A, read-out: inhibitory effects, LNCaP): 0.0195 µM
IC50 ([4]; PPC-1, Table 13A, read-out: inhibitory effects, PPC1): 0.0078 µM

Compound: COc1cc(-c2nc(C(=O)c3ccc(F)cc3)cn2C(=O)c2ccc(F)cc2)cc(OC)c1OC [compound 30]
IC50 [1, 6]: > 10 µM
IC50 [3, 7]: > 10 µM
IC50 [4, 8]: > 10 µM

Compound: COc1cc(C(=O)c2coc(-c3ccccc3)n2)cc(OC)c1OC [36a, (2-Phenyl-oxazol-4-yl)-(3,4,5-trimethoxy-phenyl)-methanone]
antiproliferative activity in words [5]: hundreds of nanomolar range

Compound: O=C(c1csc(-c2cc(F)c(F)c(F)c2)n1)c1c(F)c(F)c(F)c(F)c1F [compound 16]
IC50 [1, 6]: > 10 µM
IC50 [3, 7]: > 10 µM
IC50 [4, 8]: > 10 µM

Compound: COc1cc(C(=O)c2ccc(-c3ccccc3)o2)cc(OC)c1OC [1d, (5-Phenylfuran-2-yl)(3,4,5-trimethoxyphenyl)methanone]
IC50 [5, 13]: 0.012 to 0.035 µM
IC50 [3, 9]: 0.021 µM

Compound: COc1cc(C(=O)c2csc(-c3ccc(CN(C)C)cc3)n2)cc(OC)c1OC.Cl [2u, (2-(4-((Dimethylamino)methyl)phenyl)thiazol-4-yl)(3,4,5-trimethoxyphenyl)methanone hydrochloride]
antiproliferative activity in words [5]: abrogated activity
IC50 [3, 9]: > 10 µM

Compound: COc1cc(C(=O)c2csc(-c3ccccc3)n2)cc(OC)c1OCc1ccccc1 [compound 9]
IC50 [1, 6]: ~10 µM
IC50 [3, 7]: ~10 µM
IC50 [4, 8]: ~10 µM

Compound: COc1cc(C(=O)c2nc(-c3ccc(C)cc3)c[nH]2)cc(OC)c1OC [70f, (4-p-Tolyl-1H-imidazol-2-yl)(3,4,5-trimethoxyphenyl)methanone and (5-p-tolyl-H-imidazol-2-yl)(3,4,5-trimethoxyphenyl)methanone]
IC50 ([2]; Table 13A, read-out: inhibitory effects, LNCaP): 0.013 µM

Compound: O=C(c1ccc(F)cc1)N1CCC(c2ccccc2)CC1 [compound 22]
IC50 [1, 6]: > 20 µM
IC50 [3, 7]: > 20 µM
IC50 [4, 8]: > 20 µM

Compound: O=C(c1ccc(OC(F)(F)F)cc1)c1csc(-c2ccccc2)n1 [compound 13]
IC50 [1, 6]: > 10 µM
IC50 [3, 7]: > 10 µM
IC50 [4, 8]: > 10 µM

Compound: O=C(c1ccc2c(c1)OCO2)N1CCC(c2ccccc2)CC1 [compound 19]
IC50 [1, 6]: > 20 µM
IC50 [3, 7]: > 20 µM
IC50 [4, 8]: > 20 µM

Compound: COc1cc(C(=O)c2cccc(-c3ccccc3)c2)cc(OC)c1OC [1a, Biphenyl-3-yl(3,4,5-trimethoxyphenyl)methanone]
antiproliferative activity in words [5]: hundreds of nanomolar range

Compound: COc1cc(C(=O)[C@H]2COC(c3ccccc3)=N2)cc(OC)c1OC [35a, (2R)-(2-Phenyl-4,5-dihydro-oxazol-4-yl)-(3,4,5-trimethoxy-phenyl)-methanone]
antiproliferative activity in words [5]: hundreds of nanomolar range

Compound: CNCc1ccc(-c2nc(C(=O)c3cc(OC)c(OC)c(OC)c3)cs2)cc1.Cl [2s, (2-(4-((Methylamino)methyl)phenyl)thiazol-4-yl)(3,4,5-trimethoxyphenyl)methanone hydrochloride]
IC50 ([1]; Homo sapiens, SRB assay, prostate cancer DU 145, read-out: IC50 DU 145): > 10 µM
antiproliferative activity in words [5]: abrogated activity
IC50 ([3]; read-out: IC50 PC-3): > 10 µM

Compound: COc1cc(C(=O)N2CCC(c3ccccc3)CC2)cc(OC)c1OC [1g, (4-Phenylpiperidin-1-yl)(3,4,5-trimethoxyphenyl)methanone]
IC50 [5, 12]: > 20 µM

Compound: COc1cc(/C(=N/O)c2csc(-c3ccccc3)n2)cc(OC)c1OC [2e-cis, (Z)-(2-Phenylthiazol-4-yl)(3,4,5-trimethoxyphenyl)methanone oxime]
fold more activity than anti-isomer ([5]; 2e-cis vs 2e-trans): 10 fold
IC50 [5, 12]: 0.1 to 0.3 µM
IC50 [3, 9]: 0.12 µM
